Reference: US5648379A (priority 1990, dated 1997)
Where two headings read alike, the source gives them in different places.

How the values were obtained:
[1] = tested on: neuraminidase; details: type of neuraminidase not identified; cited from earlier work
[2] = target: N2 influenza virus neuraminidase (Influenza A virus, UniProt P06820); assay: biochemical
[3] = tested on: H2N2 influenza A virus (A/Sing/1/57); type: in vivo, mice; details: for % AUC (lung virus titre, compared to untreated mice): days 1-3; for titre of virus in lung tissue: intranasal, before and during challenge, 1 to 3 days after infection
[4] = target: N9 neuraminidase (Influenza A virus, UniProt P03472); assay: biochemical; details: read-out: Ki, inhibition of N9 neuraminidase
[5] = tested on: influenza A/Singapore/1/57 (H2N2); assay: microbe, parasite or virus in culture; type: cell-based; details: H2N2, MDCK, 72 h, read-out: IC50 Plaque Reduction, Influenza A
[6] = tested on: Influenza B/Victoria/102/85; assay: microbe, parasite or virus in culture; type: cell-based; details: MDCK, 72 h, read-out: IC50 Plaque Reduction, Influenza B
[7] = N2, 37° C., read-out: Ki, inhibition of N2 neuraminidase
[8] = Experiment 1, 25 mg/kg intranasal
[9] = Experiment 3, 12.5 mg/kg intranasal

Chain of N2 influenza virus neuraminidase (P06820 whole entry, looked up): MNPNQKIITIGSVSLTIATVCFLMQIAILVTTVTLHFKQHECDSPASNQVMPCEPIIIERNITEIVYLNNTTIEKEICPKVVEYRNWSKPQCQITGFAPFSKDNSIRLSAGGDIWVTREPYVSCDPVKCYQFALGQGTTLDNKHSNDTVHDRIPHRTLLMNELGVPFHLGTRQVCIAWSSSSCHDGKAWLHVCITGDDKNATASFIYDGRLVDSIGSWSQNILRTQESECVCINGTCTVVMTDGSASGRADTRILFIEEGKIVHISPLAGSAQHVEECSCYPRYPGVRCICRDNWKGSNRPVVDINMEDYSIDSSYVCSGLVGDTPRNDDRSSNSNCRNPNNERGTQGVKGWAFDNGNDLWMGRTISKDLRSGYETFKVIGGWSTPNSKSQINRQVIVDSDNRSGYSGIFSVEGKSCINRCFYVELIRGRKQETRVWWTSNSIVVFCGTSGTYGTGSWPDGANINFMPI
Chain of N9 neuraminidase (P03472 whole entry, looked up): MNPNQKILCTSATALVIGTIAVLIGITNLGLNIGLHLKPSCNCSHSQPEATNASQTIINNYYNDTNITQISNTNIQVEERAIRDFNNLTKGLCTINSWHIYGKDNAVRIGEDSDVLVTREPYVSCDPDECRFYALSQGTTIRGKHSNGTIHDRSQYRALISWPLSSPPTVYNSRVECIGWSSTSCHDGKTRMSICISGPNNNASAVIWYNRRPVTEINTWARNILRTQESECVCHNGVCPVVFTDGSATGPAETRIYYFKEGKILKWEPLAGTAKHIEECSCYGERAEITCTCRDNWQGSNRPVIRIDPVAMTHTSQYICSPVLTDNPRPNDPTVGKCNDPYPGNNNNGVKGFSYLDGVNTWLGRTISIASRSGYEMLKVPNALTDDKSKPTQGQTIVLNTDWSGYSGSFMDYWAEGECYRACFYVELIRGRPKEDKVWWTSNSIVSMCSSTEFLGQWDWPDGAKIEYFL

SMILES: N[C@H]1[C@H]([C@H](O)[C@H](O)CO)SC(C(=O)O)=C[C@@H]1O [2-deoxy-2,3-didehydro-6-thioneuraminic acid]
- inhibition of neuraminidase [1]: reported to inhibit neuraminidase

SMILES: CC(=O)N[C@H]1[C@H]([C@H](O)[C@H](O)CO)O[C@@H](C(=O)O)C[C@@H]1O [2-deoxy-N acetyl-α-D-neuraminic acid, 2-deoxy-N-acetyl-α-D-neuraminic acid, reference compound]
- Ki [2, 7]: 300 µM

SMILES: [N-]=[N+]=NC1(C(=O)O)C[C@H](O)[C@@H](N)[C@H]([C@H](O)[C@H](O)CO)S1 (stereo partly drawn) [2-α-azido-6-thio-neuraminic acid]
- inhibition of neuraminidase [1]: reported to inhibit neuraminidase

SMILES: NC12CC3CC(CC(C3)C1)C2 [Amantadine]
- % AUC (lung virus titre, compared to untreated mice) [3, 8]: 0.08%
- % AUC (lung virus titre, compared to untreated mice) ([3]; Experiment 2, 12.5 mg/kg intranasal): 0.03%
- % AUC (lung virus titre, compared to untreated mice) ([3]; Experiment 2, 25 mg/kg): 0.2%
- % AUC (lung virus titre, compared to untreated mice) [3, 9]: 8.8%

SMILES: CC(=O)N[C@H]1[C@H]([C@H](O)[C@H](O)CO)OC(C(=O)O)=C[C@@H]1N=[N+]=[N-] [Compound 4, Sodium 5-Acetamido-4-azido-2,3,4,5-tetradeoxy-D-glycero-D-galacto-non-2-enopyranosonate]
- Ki [2, 7]: 2 µM

SMILES: CC(=O)N[C@H]1[C@H]([C@H](O)[C@H](O)CO)OC(C(=O)O)=C[C@@H]1N [Compound 6, Sodium 5-Acetamido-4-amino-2,3,4,5-tetradeoxy-D-glycero-D-galacto-non-2-enopyranosonate]
- Ki [4]: 0.19 µM
- % AUC (lung virus titre, compared to untreated mice) [3, 8]: 0.06%
- titre of virus in lung tissue [3]: reduced the titre of virus in lung tissue
- IC50 [5]: 1.6 µM
- IC50 [6]: 1.6 µM
- Ki [2, 7]: 0.06 µM
- Ki ([2]; read-out: Ki, inhibition of N2 virus neuraminidase): 0.01 µM

SMILES: C=CCN(CC=C)[C@H]1C=C(C(=O)O)O[C@@H]([C@H](O)[C@H](O)CO)[C@@H]1NC(C)=O [Compound 9, Sodium 5-Acetamido-4-N,N-diallylamino-2,3,4,5-tetradeoxy-D-glycero-D-galacto-non-2-enopyranosonate]
- Ki [2, 7]: 4 µM

SMILES: C=CCN[C@H]1C=C(C(=O)O)O[C@@H]([C@H](O)[C@H](O)CO)[C@@H]1NC(C)=O [Compound 11, Sodium 5-Acetamido-4-N-allylamino-2,3,4,5-tetra-deoxy-D-glycero-D-galacto-non-2-enopyranosonate]
- Ki [4]: 2.5 µM
- Ki [2, 7]: 2.5 µM

SMILES: COC(=O)C1=C[C@@H](N)[C@@H](NC(C)=O)[C@H]([C@H](OC(C)=O)[C@@H](COC(C)=O)OC(C)=O)O1 [Compound 12, Methyl 5-acetamido-7,8,9-tri-O-acetyl-4-amino-2,3,4,5-tetradeoxy-D-glycero-D-talo-non-2-enopyranosonate]
- Ki [2, 7]: ~3000 µM

SMILES: COC(=O)C1=C[C@H]2OC(C)=N[C@H]2[C@H]([C@H](OC(C)=O)[C@@H](COC(C)=O)OC(C)=O)O1 [Compound 13, Methyl 7,8,9-tri-O-acetyl-2,3,5-trideoxy-4',5'-dihydro-2'-methyloxazolo [5,4-d] D-glycero-D-talo-non-2-enopyranosonate]
- Ki [2, 7]: 30 µM

SMILES: CC(=O)N[C@H]1[C@H]([C@H](O)[C@H](O)CO)OC(C(=O)O)=C[C@H]1N [Compound 14, Sodium 5-Acetamido-4-amino-2,3,4,5-tetra deoxy-D-glycero-D-talo-non-2-enopyranosonate]
- Ki [4]: 0.1 µM
- % AUC (lung virus titre, compared to untreated mice) [3, 9]: 21.1%
- titre of virus in lung tissue [3]: reduced the titre of virus in lung tissue
- IC50 [5]: 3 µM
- IC50 [6]: 1.2 µM
- Ki [2, 7]: 0.1 µM

SMILES: CC(=O)N[C@H]1[C@H]([C@H](O)[C@H](O)CO)OC(C(=O)O)=C[C@H]1N=[N+]=[N-] [Compound 17, Sodium 5-acetamido-4-azido-2,3,4,5-tetradeoxy-D-glycero-D-talo-non-2-enopyranosonate]
- Ki [2, 7]: 28 µM

SMILES: CN[C@H]1C=C(C(=O)O)O[C@@H]([C@H](O)[C@H](O)CO)[C@@H]1NC(C)=O [Compound 20, Sodium 5-acetamido-4-N-methylamino-2,3,4.5-tetradeoxy-D-glycero-D-galacto-non-2-enopyranosonate]
- Ki [2, 7]: 1.15 µM

SMILES: CC(=O)N[C@H]1[C@H]([C@H](O)[C@H](O)CO)OC(C(=O)O)=C[C@@H]1N(C)C [Compound 23, Sodium 5-acetamido-4-N,N-dimethylamino-2,3,4,5-tetradeoxy-D-glycero-D-galacto-non-2-enopyranosonate]
- Ki [2, 7]: 0.7 µM

SMILES: COC(=O)CN[C@H]1C=C(C(=O)OC)O[C@@H]([C@H](O)[C@H](O)CO)[C@@H]1NC(C)=O [Compound 25, Methyl 5-acetamido-4-N-methoxycarbonylmethylamino-2,3,4,5-tetradeoxy-D-glycero-D-galacto-non-2-enopyranosonate]
- Ki [2, 7]: 7 µM

SMILES: CC(=O)N[C@H]1[C@H]([C@H](O)[C@H](O)CO)OC(C(=O)O)=C[C@@H]1NCCO [Compound 29, Sodium 5-acetamido-4-N-2'-hydroxyethylamino-2,3,4,5-tetradeoxy-D-glycero-D-galacto-non-2-enopyranosonate]
- Ki [4]: 1.6 µM
- IC50 [5]: 60 µM
- IC50 [6]: 7 µM
- Ki [2, 7]: 1.6 µM

SMILES: O=C(O)C1=C[C@H](O)[C@@H](O)[C@H]([C@H](O)[C@H](O)CO)O1 [Compound 35, Sodium 2,-3-dideoxy-D-glycero-D-galacto-non-2-enopyranosonate]
- Ki [2, 7]: 480 µM

SMILES: N[C@H]1[C@H]([C@H](O)[C@H](O)CO)OC(C(=O)O)=C[C@@H]1N [Compound 38, Sodium 4,5-Diamino-2,3,4,5-tetradeoxy-D-glycero-D-galacto-non-2-enopyranosonate]
- IC50 [5]: 11 µM
- IC50 [6]: 6.8 µM
- Ki [2, 7]: 0.65 µM

SMILES: COC(=O)C1=C[C@H](O)[C@@H](NC(C)=O)[C@H]([C@H](O)[C@H](O)CNC(C)=O)O1 [Compound 41, Methyl 5,9-diacetamido-2,3,5,9-tetradeoxy-D-glycero-D-galacto-non-2-enopyranosonate]
- Ki [2, 7]: 36 µM

SMILES: CC(=O)NC[C@@H](O)[C@@H](O)[C@@H]1OC(C(=O)O)=C[C@H](O)[C@H]1NC(C)=O [Compound 42, 5,9-diacetamido-2,3,5,9-tetradeoxy-D-glycero-D-galacto-non-2-enopyranosonicacid]
- Ki [2, 7]: 14.5 µM

SMILES: COC(=O)C1=C[C@H](O)[C@@H](NC(C)=O)[C@H]([C@H](O)[C@H](O)CC#N)O1 [Compound 43, Methyl 5-acetamido-9-cyano-2,3,5,9-tetradeoxy-D-glycero-D-galacto-non-2-enopyranosonate]
- Ki [2, 7]: ~3000 µM

SMILES: CC(=O)N[C@H]1[C@H]([C@H](O)[C@H](O)CC#N)OC(C(=O)O)=C[C@@H]1O [Compound 44, 5-Acetamido-9-cyano-2,3,5,9-tetradeoxy-D-glycero-D-galacto-non-2-enopyranosonic acid]
- Ki [2, 7]: 3 µM

SMILES: C=CCN(O)[C@H]1C=C(C(=O)O)O[C@@H]([C@H](O)[C@H](O)CO)[C@@H]1NC(C)=O [Compound 45, Sodium 5-acetamido-4-N-allyl-N-hydroxy-2,3,4,5-tetradeoxy-D-glycero-D-galacto-non-2-enopyranosonate]
- IC50 [5]: 4.7 µM
- IC50 [6]: 2.7 µM

SMILES: CC(=O)N[C@H]1[C@H]([C@H](O)[C@H](O)CO)OC(F)(C(=O)O)C(F)[C@@H]1O (stereo partly drawn) [N-acetyl-2,3-difluoro-α-D-neuraminic acid]
- inhibition of neuraminidase [1]: reported to inhibit neuraminidase

SMILES: NC(=O)c1ncn([C@@H]2O[C@H](CO)[C@@H](O)[C@H]2O)n1 [Ribavirin]
- % AUC (lung virus titre, compared to untreated mice) ([3]; Experiment 2, 25 mg/kg): 29.8%
